The experiment deals with Hepatoma AH 130. Put plainly: in vivo. The arrangement: species or system SPF Wistar rats. Particulars: additional compounds, result in words. An excerpt: The high activity against tumours is further illustrated in these experiments by comparisons with known antitumour agents used in the therapy. The therapeutic indexes (T.I.), i.e. the ratios LD50/ED50, are in all comparisons much more favourable with the compounds of the present invention.
LD50 is the dose that caused a 50 percent lethality of the animals, ED50 is the dose that caused a 50 percent reduction of tumour size.
The experimental design and the interpretation of the results have been in accordance with the standards set by the CCNSC (Cancer Chemotherapy Reports, January 1959 and December 1962), and by the DR&D (Cancer Chemotherapy Reports, September 1972, Vol. 3, No. 2).
The way of administration is by the intraperitoneal route (i.p.) in each case.
Experimental animals: SPF Wistar rats.
Tumour implant: 5 × 10^6 tumour cells i.p.
Therapy: One injection i.p. on the day following implantation.
Termination: The animals are killed on the 8th day.
Evaluation: Weights of tumours of test animals compared with those of control animals.

Regarding `COc1ccc2c(c1)CC[C@@H]1[C@@H]2CC[C@]2(C)[C@@H](OC(=O)NC(=O)N(CCCl)N=O)CC[C@@H]12` [estradiol-3-methylether-17β-/N^4-(2-chloroethyl)-N^4-nitroso allophanate/], the anti-tumor activity result is “exhibit anti-tumor activity”. Take `C[C@]12CC[C@H]3[C@@H](CC=C4C[C@@H](OC(=O)N(CCCl)N=O)CC[C@@]43C)[C@@H]1CC[C@@H]2OC(=O)CCC(=O)O` [androstenediol-17β-hemisuccinate-3β-N-(2-chloroethyl)-N-nitroso carbamate]: the anti-tumor activity entry was “exhibit anti-tumor activity”. As for `CO[C@H]1CC[C@H]2[C@@H]3CC=C4C[C@@H](OC(=O)N(CCCl)N=O)CC[C@]4(C)[C@H]3CC[C@]12C` [androstenediol-17β-methylether-3β-N-(2-chloroethyl)-N-nitroso carbamate], the entry is “exhibit anti-tumor activity”; as for `CC(C)CCC[C@@H](C)[C@H]1CC[C@H]2[C@@H]3CC=C4C[C@@H](OC(=O)N(CCCl)C(=O)N(CCCl)N=O)CC[C@]4(C)[C@H]3CC[C@]12C` [cholesterol-3β-/N^2,N^4-bis (2-chloroethyl)-N^4-nitroso allophanate/], “exhibit anti-tumor activity”; as for `C=CC[C@]1(OC(=O)N(CCCl)N=O)CC[C@H]2[C@@H]3CCC4=CCCC[C@@H]4[C@H]3CC[C@@]21C` [17α-allyl-estr-4-en-17β-ol,17β-N-(2-chloroethyl)-N-nitroso carbamate], “exhibit anti-tumor activity”. As for `C#C[C@]1(OC(=O)N(CCCl)N=O)CC[C@H]2[C@@H]3CCC4=C[C@@H](OP(=O)(O)OCC)CC[C@@H]4[C@H]3CC[C@@]21C` [ethynodiol-17β-N-(2-chloroethyl)-N-nitroso carbamate-3β-ethyl hydrogen phosphate], the entry is “exhibit anti-tumor activity”; as for `C#C[C@]1(OC(=O)N(CCCl)N=O)CC[C@H]2[C@@H]3CCC4=C[C@@H](OP(=O)(O)O)CC[C@@H]4[C@H]3CC[C@@]21C` [ethynodiol-17β-N-(2-chloroethyl)-N-nitroso carbamate-3β-dihydrogen phosphate], “exhibit anti-tumor activity”. The result for `CC(C)CCC[C@@H](C)[C@H]1CC[C@H]2[C@@H]3CC=C4C[C@@H](OC(=O)N(CCF)N=O)CC[C@]4(C)[C@H]3CC[C@]12C` [cholesterol-3β-N-(2-fluoroethyl)-N-nitroso carbamate] reads “exhibit anti-tumor activity”; that for `C#C[C@]1(OC(=O)N(CCCl)N=O)CC[C@H]2[C@@H]3CCC4=C[C@@H](OS(=O)(=O)O)CC[C@@H]4[C@H]3CC[C@@]21C` [ethynodiol-17β-N-(2-chloroethyl)-N-nitroso carbamate-3β-sodium sulphate], “exhibit anti-tumor activity”; that for `CCOP(=O)(O)O[C@H]1CC[C@H]2[C@@H]3CCc4cc(OC(=O)N(CCCl)N=O)ccc4[C@H]3CC[C@]12C` [estradiol-17β-ethyl hydrogen phosphate-3-N-(2-chloroethyl)-N-nitroso carbamate], “exhibit anti-tumor activity”. Consider `C[C@]12CC[C@H]3[C@@H](CC=C4C[C@@H](OC(=O)N(CCCl)N=O)CC[C@@]43C)[C@@H]1CC[C@@H]2OC(=O)c1ccccc1` [androstenediol-17β-benzoate-3β-N-(2-chloroethyl)-N-nitroso carbamate], for which the anti-tumor activity entry is “exhibit anti-tumor activity”. The result for `C#C[C@]1(OC(=O)N(CCCl)N=O)CC[C@H]2[C@@H]3CCC4=C[C@@H](OC(=O)CCCCCC)CC[C@@H]4[C@H]3CC[C@@]21C` [ethynodiol-17β-N-(2-chloroethyl)-N-nitroso carbamate-3β-oenanthate] reads “exhibit anti-tumor activity”. On to `CC(=O)[C@H]1CC[C@H]2[C@@H]3CC=C4C[C@@H](OC(=O)N(CCCl)C(=O)N(CCCl)N=O)CC[C@]4(C)[C@H]3CC[C@]12C` [pregnenolone-3β-/N^2,N^4-bis (2-chloroethyl)-N^4-nitroso allophanate/], for which the anti-tumor activity result was “exhibit anti-tumor activity”. Turning to `C[C@]12CC[C@H]3[C@@H](CC=C4C[C@@H](OC(=O)N(CCCl)N=O)CC[C@@]43C)[C@@H]1CC[C@@H]2OS(=O)(=O)O` [androstenediol-3β-/N-(2-chloroethyl)-N-nitroso carbamate/-17β-sodium sulphate], the anti-tumor activity entry is listed as “exhibit anti-tumor activity”. The result for `COc1ccc2c(c1)CC[C@@H]1[C@@H]2CC[C@]2(C)[C@@H](OC(=O)N(C)C(=O)N(CCCl)N=O)CC[C@@H]12` [estradiol-3-methylether-17β-/N^2-methyl-N^4-(2-chloroethyl)-N^4-nitroso allophanate] reads “exhibit anti-tumor activity”; that for `CC(C)(C)C(=O)OCC(=O)[C@@]1(O)CC[C@H]2[C@@H]3CCC4=CC(=O)C=C[C@]4(C)[C@H]3[C@@H](OC(=O)N(CCCl)N=O)C[C@@]21C` [prednisolone-11β-/N-(2-chloroethyl)-N-nitroso carbamate/-21-pivalate], “exhibit anti-tumor activity”. For the compound `C[C@]12C=CC(=O)C=C1CC[C@@H]1[C@@H]2[C@@H](OC(=O)N(CCCl)N=O)C[C@@]2(C)[C@H]1CC[C@]2(O)C(=O)CO` [prednisolone-11β-N-(2-chloroethyl)-N-nitroso carbamate], the anti-tumor activity entry was “exhibit anti-tumor activity”. The result for `C#C[C@]1(OC(C)=O)CC[C@H]2[C@@H]3CCC4=C[C@@H](OC(=O)N(C(=O)N(CCCl)N=O)c5ccccc5)CC[C@@H]4[C@H]3CC[C@@]21C` [ethynodiol-17β-acetate-3β-/N^2-phenyl-N^4-(2-chloroethyl)-N-nitroso allophanate/] reads “exhibit anti-tumor activity”. The result for `CC(=O)[C@H]1CC[C@H]2[C@@H]3CC=C4C[C@@H](OC(=O)N(CCF)N=O)CC[C@]4(C)[C@H]3CC[C@]12C` [pregnenolone-3β-N-(2-fluoroethyl)-N-nitroso carbamate] reads “exhibit anti-tumor activity”. The result for `C#C[C@]1(OC(C)=O)CC[C@H]2[C@@H]3CCC4=C[C@@H](OC(=O)N(CCCC)C(=O)N(CCCl)N=O)CC[C@@H]4[C@H]3CC[C@@]21C` [ethynodiol-17β-acetate-3β-/N^2-n-butyl-N^4-(2-chloroethyl)-N^4-nitroso allophanate/] reads “exhibit anti-tumor activity”; that for `Cc1ccc(N(C(=O)Oc2ccc3c(c2)CC[C@@H]2[C@@H]3CC[C@]3(C)C(=O)CC[C@@H]23)C(=O)N(CCCl)N=O)cc1` [estrone-3-/N^2-(4-methylphenyl)-N^4-(2-chloroethyl)-N^4-nitroso allophanate/], “exhibit anti-tumor activity”. With `C#C[C@]1(OC(C)=O)CC[C@H]2[C@@H]3CCC4=C[C@@H](OC(=O)N(C(=O)N(CCCl)N=O)C5CCC(C)CC5)CC[C@@H]4[C@H]3CC[C@@]21C` (stereo partly drawn) [ethynodiol-17β-acetate-3β-/N^2-(4-methylcyclohexyl)-N^4-(2-chloroethyl)-N^4-nitroso allophanate/], the anti-tumor activity result is given as “exhibit anti-tumor activity”. For the compound `C[C@@]12C=CC[C@H]1[C@@H]1CCc3cc(OC(=O)N(CCCl)N=O)ccc3[C@H]1CC2` [estra-1,3,5(10),16-tetraen-3-ol,3-N-(2-chloroethyl)-N-nitroso carbamate], the anti-tumor activity result is reported as “exhibit anti-tumor activity”.

These data come from patent US3963707A, “Novel N-nitroso compounds, compositions containing such compounds, processes for their preparation and methods of treatment therewith, and novel intermediates” (Aktiebolaget Leo, priority 1973, dated 1976).
